From paper PMC11901578, “Polymethoxyflavones and Bone Metabolism” (Nutrients, 2025)
Read-outs that look alike come from different tables or passages of the source.

Columns and labels:
[1] = tested on: human umbilical vein endothelial cells (HUVECs); parameters: method as in PMID 22707269; settings: read-out: IC50, anti-proliferative effect on HUVECs; cited from earlier work
[2] = tested on: human osteoblastic cell line MG-63; parameters: method as in PMID 34466066; settings: 10 and 20 μg/mL (approximately 25 and 50 μM); cited from earlier work
[3] = tested on: collagen-induced arthritic mice; settings: cited from earlier work
[4] = tested on: bone marrow macrophages (BMMs); settings: 50 μM; cited from earlier work
[5] = tested on: NF-κB signaling in chondrocytes; parameters: method as in PMID 31214026; settings: 10, 20, and 40 μM; cited from earlier work
[6] = tested on: alveolar bone loss in mice; settings: cited from earlier work; for alveolar bone loss in mice, restored: LPS +; for decrease of alveolar bone mineral density (ABMD): co-injection with LPS (25 μg/mouse/day), three times every other day, LPS alone 9%
[7] = tested on: MH7A human fibroblast-like synoviocytes (FLS); parameters: method as in PMID 31978425; settings: 50 μM; cited from earlier work
[8] = tested on: bone resorption in mouse bone organ cultures; parameters: method as in PMID 21258168, PMID 22850615; settings: 60 μM; cited from earlier work
[9] = tested on: ectopic bone formation in mice; parameters: method as in PMID 36816515; settings: collagen sponge disk with BMP-2 (1 μg) and nobiletin (2.5 or 5 μg), fascia of back muscle; cited from earlier work
[10] = tested on: PGE2 production in osteoblasts; parameters: method as in PMID 21258168, PMID 22850615; settings: with downregulation of COX-2; cited from earlier work
zebrafish embryos = tested on: zebrafish embryos; parameters: method as in PMID 22707269; settings: 30 μM, cited from earlier work
[11] = tested on: bone resorption in mouse calvarial or alveolar bone organ cultures; settings: 30 μM, bone organ cultures; cited from earlier work
estrogen receptor-β = estrogen receptor-β (Homo sapiens, UniProt Q92731); assay: Estrogen receptor-binding assay; settings: unpublished data
Chain of estrogen receptor-β (Q92731 whole entry): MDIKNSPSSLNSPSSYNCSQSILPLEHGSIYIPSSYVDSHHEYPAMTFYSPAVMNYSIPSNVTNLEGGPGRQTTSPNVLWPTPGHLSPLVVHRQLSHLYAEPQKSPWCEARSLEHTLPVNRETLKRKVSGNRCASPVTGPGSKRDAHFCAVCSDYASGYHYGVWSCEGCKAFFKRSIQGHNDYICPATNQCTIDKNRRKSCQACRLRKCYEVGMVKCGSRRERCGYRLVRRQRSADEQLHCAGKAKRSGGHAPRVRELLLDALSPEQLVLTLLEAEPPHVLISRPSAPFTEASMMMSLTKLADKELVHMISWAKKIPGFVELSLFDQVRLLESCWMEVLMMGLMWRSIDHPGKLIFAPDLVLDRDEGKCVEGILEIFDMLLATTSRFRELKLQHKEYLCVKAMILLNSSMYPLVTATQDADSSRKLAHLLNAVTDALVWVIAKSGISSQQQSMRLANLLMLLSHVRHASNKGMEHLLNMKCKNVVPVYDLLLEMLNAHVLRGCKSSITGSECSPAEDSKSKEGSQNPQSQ
Description: (§1) An anticipated adverse effect of long-term flavonoid supplementation is an estrogen-like effect. Although isoflavones, such as genistein and daidzein, have estrogenic effects via binding to estrogen receptors, there are no reports on polymethoxyflavones. […] On the other hand, excessive long-term intake of PMFs may indicate some toxicity, since a high concentration of PMFs may lead to inhibited cell growth or cell death in various cell types, including osteoblasts, endothelial cells, and cancer cell lines.

estrogen receptor-α = estrogen receptor-α (Homo sapiens, UniProt P03372); assay: Estrogen receptor-binding assay; settings: unpublished data
Chain of estrogen receptor-α (P03372 whole entry): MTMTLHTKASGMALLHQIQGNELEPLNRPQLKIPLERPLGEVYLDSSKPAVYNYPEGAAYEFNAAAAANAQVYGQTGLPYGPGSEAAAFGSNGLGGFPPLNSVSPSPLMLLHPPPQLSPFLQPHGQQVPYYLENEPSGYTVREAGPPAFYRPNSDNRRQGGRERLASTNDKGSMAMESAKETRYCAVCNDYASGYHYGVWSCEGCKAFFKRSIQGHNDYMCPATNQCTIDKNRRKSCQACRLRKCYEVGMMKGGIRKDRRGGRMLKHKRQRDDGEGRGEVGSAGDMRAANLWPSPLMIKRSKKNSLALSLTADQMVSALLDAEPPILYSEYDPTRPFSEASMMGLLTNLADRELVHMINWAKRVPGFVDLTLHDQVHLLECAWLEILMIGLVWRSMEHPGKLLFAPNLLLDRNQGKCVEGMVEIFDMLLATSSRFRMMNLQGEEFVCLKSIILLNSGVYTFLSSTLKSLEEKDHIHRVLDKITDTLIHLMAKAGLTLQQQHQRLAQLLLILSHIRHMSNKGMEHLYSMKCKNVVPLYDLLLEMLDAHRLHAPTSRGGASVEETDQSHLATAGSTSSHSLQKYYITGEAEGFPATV
Description: as §1

HL-60 cells = tested on: HL-60 cells; parameters: method as in PMID 23225422; settings: read-out: IC50, anti-proliferative effect on HL-60 cells; cited from earlier work
[12] = tested on: human periodontal ligament cells (HPDLCs); settings: 12.5, 25, 50, and 100 μM, TNF- or IL-1-stimulated HPDLCs; cited from earlier work
IKKβ = tested on: IKKβ; parameters: method as in PMID 21258168, PMID 22850615; settings: in vitro kinase assay; cited from earlier work
DMM-OA mice = settings: cited from earlier work
[13] = tested on: ovariectomized (OVX) mice; settings: cited from earlier work
Raw264.7 = settings: cited from earlier work
[14] = tested on: osteoclast differentiation in co-cultures of osteoblasts and bone marrow cells; settings: cited from earlier work
[15] = tested on: osteoclast differentiation in co-culture system; settings: 30 μM, cited from earlier work
human OA chondrocytes = tested on: human OA chondrocytes; parameters: method as in PMID 30938722; settings: IL-1-stimulated human OA chondrocytes; cited from earlier work
[16] = intraperitoneal 50 μM for 9 weeks
[17] = intraperitoneal 2 mg/mouse/day (approximately 67 mg/kg) for 4 weeks, Sham mice as 100%
[18] = subcutaneous 0.25 mg/day by mini-osmotic pump for 4 weeks

COc1ccc(-c2cc(=O)c3c(OC)c(OC)c(OC)c(OC)c3o2)cc1OC [Nobiletin, 3′,4′,5,6,7,8-Hexamethoxyflavone]
IC50 [1]: 62 µM
osteoblast differentiation and mineralization [2]: promoted osteoblast differentiation and mineralization in a dose-dependent manner
gene expression and production of aggrecanase-1 and -2 ([3]; collagen-induced arthritic mice): downregulate
decrease of severity of arthritis ([3]; intraperitoneal 15, 30, and 60 mg/kg): 45%
cytotoxicity to bone marrow macrophages (BMMs) [4]: cytotoxic
IL-1-induced NF-κB signaling [5]: inhibited IL-1-induced NF-κB signaling in a dose-dependent manner
alveolar bone loss in mice, restored ([6]; 30 μg/mouse): 5% restored [8]
alveolar bone loss in mice, restored ([6]; 100 μg/mouse): 6% restored [8]
alveolar bone loss in mice, restored ([6]; 300 μg/mouse): 9% restored [8]
decrease of alveolar bone mineral density (ABMD) ([6]; 3 μg/mouse/day): 3%
decrease of alveolar bone mineral density (ABMD) ([6]; 100 μg/mouse/day): 4%
decrease of alveolar bone mineral density (ABMD) ([6]; 300 μg/mouse/day): 1%
IL-21-mediated inflammatory response [7]: suppressed
IL-1-induced bone resorption [8]: completely suppressed
increase of bone formation (BV/TV) relative to BMP-2 alone [9]: 33%
PGE2 production [10]: suppressed
anti-angiogenic effect on zebrafish embryos, inhibited (zebrafish embryos; listed as nobiletin): ~63%
anti-angiogenic effect on zebrafish embryos, inhibited (zebrafish embryos): 63% inhibited [47]
LPS-induced bone-resorbing activity [11]: significantly suppressed
binding to estrogen receptor-β (estrogen receptor-β): unable to bind
binding to estrogen receptor-α (estrogen receptor-α): unable to bind
IC50 (HL-60 cells): 52 µM
expression of inflammatory cytokines (CXCL10, CCL2, IL-8), MMP-1, MMP-3, and COX-2 [12]: dose-dependently reduced
IKKβ kinase activity (IKKβ): directly inhibited
cartilage destruction and synovitis (DMM-OA mice; DMM-OA mice, intraperitoneal 20 mg/kg every 2 days for 8 weeks): inhibited cartilage destruction and synovitis
cartilage destruction and subchondral bone thickening (DMM-OA mice; DMM-OA model mice): prevented cartilage destruction and thickening of the subchondral bone
effect on body weight and the uterus [13]: without affecting body weight and the uterus
BMD restored [13, 16]: 4.5%
BV/TV restored [13, 16]: 16%
trabecular separation (Tb.Sp) restored [13, 16]: 30%
bone mineral density (BMD) of the femur restored [13, 17]: 6%
bone volume/tissue volume (BV/TV) of the femur restored [13, 17]: 34%
trabecular BMD in the distal femur restored ([13]; oral 50 and 100 mg/kg for 12 weeks, similar effects at both dosages): 8%
distal BMD in the femur restored [13, 18]: 5%
whole BMD in the femur restored [13, 18]: 4%
RANKL-induced osteoclast differentiation (Raw264.7; 4, 20, and 50 μM, Raw264.7): suppressed RANKL-induced osteoclast differentiation in a dose-dependent manner
osteoclast differentiation in Raw264.7 cultures, inhibited (Raw264.7; RANKL +, 30 μM): 86% inhibited [8]
IC50 (Raw264.7; RANKL +, read-out: IC50, osteoclast differentiation in Raw264.7 cultures): 8 µM
inhibition of IL-1-induced osteoclast differentiation ([14]; 10 μM): 20%
inhibition of IL-1-induced osteoclast differentiation ([14]; 30 μM): 85%
inhibition of IL-1-induced osteoclast differentiation ([14]; 60 μM): 100%
IC50 ([14]; IL-1 +, read-out: IC50, osteoclast differentiation in co-culture system): 33 µM
LPS-induced osteoclast differentiation ([15]; co-cultures): significantly suppressed
osteoclast differentiation in co-culture system, inhibited ([15]; LPS +): 70% inhibited [8]
overproduction of inflammatory mediators (PGE2, NO, COX-2, iNOS, TNF-α, IL-6, MMPs) (human OA chondrocytes): significantly suppressed
